According to PMC8881512 (Nature Communications, 2022):
Where “and” joins values, the source holds several entries; their conditions need not be identical. Identical values can stand only once.

Experiments:
[1] = system: YAP/TAZ target, ESR1 and ERα target gene mRNA in BTO-02; test: qPCR gene expression in breast tumour organoids BTO-02; assay type: cell-based, human; settings: BTO-02 starved for E2 for 3 days, then 100 nM E2 for 2 hours; Fig.s6o;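 further: relative mRNA abundance computed by the ΔCt approach from SYBR-based real-time qPCR, with GAPDH as internal housekeeping reference for normalisation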
[2] = system: MCF-7 cells; test: Colony-formation assay, MCF-7 (wild-type and ESR1 knock-in); assay type: cell-based, human; settings: for Relative colony formation: 1 μM 4OHT, 0.2 μM Fulvestrant, 2 μM VT02956, 2 μM VT02484, Fig.6g
Description: […] The drugs were refreshed every 2–4 days. The colonies were then fixed with 4% paraformaldehyde for 15 min and stained with 0.1% crystal violet in 20% methanol solution for quantification.

[3] = system: MCF-7 cells; test: Cell proliferation by cell counting, MCF-7; assay type: cell-based, human; settings: for Fold change of cell proliferation: 4OHT (0.5 μM), Fig.6f; for Cell proliferation (cell counting): 1 μM Entinostat for 4 days, Fig.1p
Description: Cell proliferation rates were determined by automated cell counter. In brief, cells were plated at density of 0.1 million cells per well in six-well plate. Cell numbers were counted by the indicated time point as stated in the figure legends.

[4] = system: T47D cells; test: Colony-formation assay, T47D (wild-type and ESR1 knock-in); assay type: cell-based; settings: 1 μM 4OHT, 0.2 μM Fulvestrant, 2 μM VT02956, 2 μM VT02484, 14 days, Fig.6h
Description: For colony formation, cells were plated into 12-well plate with a constant density at the start date of treatment in triplicate with the indicated compounds and further cultured for 10 days (MCF-7) or 14 days (T47D). The drugs were refreshed every 2–4 days. The colonies were then fixed with 4% paraformaldehyde for 15 min and stained with 0.1% crystal violet in 20% methanol solution for quantification.

[5] = target: T1, TEAD-VGLL3-NCOR2 complex (Homo sapiens, UniProt Q15562); test: TEAD2 co-immunoprecipitation with NCOR2 / VGLL3; assay type: cell-based; settings: MCF7 transfected cells; Fig. 2n
T1 construct: expressed in transfected cells; host or cells: MCF-7
T1 sequence (Q15562 whole entry, one chain of several): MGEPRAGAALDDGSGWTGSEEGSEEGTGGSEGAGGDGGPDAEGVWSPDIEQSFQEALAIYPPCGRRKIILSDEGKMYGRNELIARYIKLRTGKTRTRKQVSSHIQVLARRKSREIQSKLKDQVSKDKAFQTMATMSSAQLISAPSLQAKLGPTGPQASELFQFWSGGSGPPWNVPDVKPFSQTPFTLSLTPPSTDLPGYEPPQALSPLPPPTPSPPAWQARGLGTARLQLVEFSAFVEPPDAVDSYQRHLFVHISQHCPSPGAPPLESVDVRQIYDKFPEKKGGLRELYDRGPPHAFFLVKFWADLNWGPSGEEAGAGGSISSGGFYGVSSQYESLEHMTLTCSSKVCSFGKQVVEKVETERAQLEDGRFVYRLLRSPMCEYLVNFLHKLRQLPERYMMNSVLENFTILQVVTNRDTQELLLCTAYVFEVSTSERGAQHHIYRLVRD
Description: For immunoprecipitations, cells were rinsed with ice-cold DPBS and then lysed in mild lysis buffer (150 mM NaCl, 50 mM Tris-Cl pH7.5, 0.5% Triton X-100) with protease inhibitors (Roche, #11873580001) and phosphatase inhibitors (Thermo Scientific, #88667) on ice for 30 min and centrifuged at 12,000 rpm for 10 min. Primary antibodies and Protein A/G magnetic beads (Pierce, #88803) were added to the supernatants and incubated with rotation for 3 h at 4 °C. Immunoprecipitants were washed four times with lysis buffer and were denatured by SDS-PAGE sample buffer and boiled for 5 min.

[6] = system: ERα, YAP/TAZ phosphorylation in MCF-7 cells; test: Immunoblot analysis, MCF-7 cells; assay type: cell-based, human; settings: WT or LATS1/2 dKO MCF-7; 1 µM of VT-107 for 2 days; Supplementary Fig. 4k
[7] = system: contact between ESR1 promoter and super enhancer locus; test: 3C library targeted bait qPCR (3C-qPCR); assay type: cell-based, human; settings: MCF-7 LATS1/2 dKO + 1 µM VT107 for 2 days; relative to Parental; Fig.s5f
Description: The 3C templates were generated by combining the protocols of 3C[40] with in-situ Hi-C[41]. Briefly, 10 million cells were collected, and the cell pellet was resuspended in DPBS with formaldehyde added at a final concentration of 1% at room temperature for 10 min. […] The nuclei were further washed once by in-situ lysis buffer and resuspended in 50 μl 0.5% SDS solution at 62 °C for exactly 10 min. The SDS was then neutralised by adding 145 μl H2O and 25 μl 10% Triton X-100 at 37 °C for 15 min. After adding 100 U DpnII (NEB, #R0543) with the presence of 1x NBEuffer 3.1, the restriction enzyme digestion was conducted in a thermomixer overnight at 37 °C. The restriction enzyme was then heat inactivated by incubating at 65 °C for 20 minutes. Then the digested chromatin was re-ligated by adding 900 μl Ligation Master Mix (1.3x NEB T4 Ligase Buffer, 1.1% X-100, 0.05% BSA and 2 U/μl T4 ligase) and incubated overnight at 16 °C with constant rotation. […] The 3C DNA was then purified with phenol-chloroform, precipitated and washed in 70% ethanol, and resuspend in Elution Buffer (1 mM Tris-HCl pH 8.0, 0.1 mM EDTA) and quantified with Nanodrop. […] Library concentration was measured with Qubit sdDNA HS Assay Kit and further qualified with Tapestation. […] After sequencing quality control with FastQC and trimming of adaptor sequence with Trim Galore, reads were processed in accordance with the Umi4C pipeline.

[8] = system: ER+ breast tumour organoids (BTO-02); test: 3D organoids drug response assay (CellTiter-Glo 3D); assay type: cell-based, human; settings: BTO-02; 12 days treatment with 0.2 µM Fulvestrant or 1 µM Tamoxifen; Fig.s6p
Description: Breast tumour organoids were dissociated into single cells using TrypLE Express and counted with automated cell counter. Subsequently, 1000 cells were mixed in 10 μl BME type 2, seeded onto 96-well plate in triplicate and overlaid with 100 μl BC organoid medium (BOM) after BME gelation. Three days after organoids sphere formation, medium was removed and replaced by 100 μl of complete medium containing VT02956 (0, 0.04, 0.2, 1, 5 μM) or vehicle (DMSO). The drug-containing medium was refreshed every 3 days for additional 3–4 times. At the end of the treatment, the effect of the drugs on the tumour organoids, in terms of the organoids cell growth, was assayed with CellTiter-Glo 3D (Promega) according to the manufacturer’s instructions and were normalised to vehicle controls (0.5% DMSO content). The IC50 values was calculated in GraphPad Prism 8.

[9] = system: VGLL3, ESR1, YAP/TAZ target and ERα target gene mRNA in MCF-7 cells; test: qPCR gene expression in MCF-7 cells; settings: 1 μM Entinostat for 24 h, Fig.1o;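 further: SYBR Green real-time PCR, mRNA abundance computed by the ΔCt approach with GAPDH transcript as the internal normalisation control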

Which “GREB1 Rel. expression (BTO-02)” value [1] does the source give for `C[C@]12CC[C@@H]3c4ccc(O)cc4CC[C@H]3[C@@H]1CC[C@@H]2O` [E2, 17β-estradiol, reference compound] here?
Its value is 4.976 and 4.601 and 4.355.

And the “TFF1 Rel. expression (BTO-02)” value [1]?
Its value is 6.504 and 6.591 and 6.279.

For `CC/C(=C(\c1ccc(O)cc1)c1ccc(OCCN(C)C)cc1)c1ccccc1` [4OHT, 4-Hydroxytamoxifen, reference compound], which Relative colony formation ([2]; MCF-7 ERa D538G knock-in) is on record?
The Relative colony formation was 0.71 and 0.61 and 0.66.

What about the Relative colony formation ([2]; MCF-7 ERa Y537S knock-in) of the same compound?
Its Relative colony formation is 0.79 and 0.83 and 0.77.

What about the Relative colony formation ([2]; MCF-7 WT) of the same compound?
Its Relative colony formation is 0.38 and 0.41 and 0.34.

And the “Fold change of cell proliferation” value ([3]; MCF-7 ERα-Y537S knock-in + ctrl)?
The value was 1.082 and 1.041 and 1.122.

And the “Fold change of cell proliferation” value ([3]; MCF-7 ERα-Y537S knock-in + sgLATS1/2)?
The value was 0.2796 and 0.349 and 0.2955.

What about the “Fold change of cell proliferation” value ([3]; MCF-7 wt + ctrl) of the same compound?
Its value is 0.5306 and 0.5714 and 0.5918.

And the “Fold change of cell proliferation” value ([3]; MCF-7 wt + sgLATS1/2)?
The value was 0.2041 and 0.1918 and 0.1796.

And the Relative colony formation ([4]; T47D ERa Y537S knock-in)?
Its Relative colony formation is 0.79 and 0.83 and 0.77.

And the Relative colony formation ([4]; T47D WT)?
The Relative colony formation was 0.41 and 0.38 and 0.44.

For VT-107, which “TEAD2 Co-IP with VGLL3 / NCOR2” value [5] is on record?
Its value is “disrupted the interaction of TEAD with either VGLL3 or NCOR2”.

What about the “ERα level (immunoblot)” value [6] of the same compound?
Its value is “ameliorated the ERα downregulation caused by LATS1/2 dKO”.

And the “Rel. Contact (3C-qPCR) between ESR1 promoter and super enhancer” value [7]?
The value was 0.5958 and 0.5632 and 0.5017.

`C[C@]12CC[C@@H]3c4ccc(O)cc4C[C@@H](CCCCCCCCC[S+]([O-])CCCC(F)(F)C(F)(F)F)[C@H]3[C@@H]1CC[C@@H]2O` (stereo partly drawn) [Fulvestrant, reference compound] was tested. Which Relative colony formation ([2]; MCF-7 ERa D538G knock-in) did it give?
The Relative colony formation was 0.58 and 0.62 and 0.53.

What about the Relative colony formation ([2]; MCF-7 ERa Y537S knock-in) of the same compound?
The Relative colony formation was 0.68 and 0.73 and 0.65.

And the Relative colony formation ([2]; MCF-7 WT)?
Its Relative colony formation is 0.31 and 0.26 and 0.32.

And the “Rel. growth (BTO-02, %)” value [8]?
The value was 43.197% and 36.224% and 48.81%.

What about the Relative colony formation ([4]; T47D ERa Y537S knock-in) of the same compound?
The Relative colony formation was 0.68 and 0.73 and 0.65.

And the Relative colony formation ([4]; T47D WT)?
Its Relative colony formation is 0.38 and 0.35 and 0.32.

Which “Cell proliferation (cell counting)” value ([3]; VGLL3 KO MCF-7) does the source give for `Nc1ccccc1NC(=O)c1ccc(CNC(=O)OCc2cccnc2)cc1` [Entinostat, reference compound] here?
The value was 10.42 and 9.55 and 11.21.

What about the “Cell proliferation (cell counting)” value ([3]; Wild-type MCF-7) of the same compound?
The value was 4.59 and 3.87 and 4.88.

And the “ESR1 expression (qPCR)” value ([9]; VGLL3 KO MCF-7)?
Its value is 0.5015 and 0.486 and 0.4463.

And the “ESR1 expression (qPCR)” value ([9]; Wild-type MCF-7)?
The value was 0.07832 and 0.08939 and 0.1138.

How did the “Rel. colony (colony-formation assay)” value ([2]; MCF-7, VT02956 (2 μM), VT02484 (2 μM) or Palbociclib (0.1 μM) alone or in combinations, Fig.6d) turn out when `CC(=O)c1c(C)c2cnc(Nc3ccc(N4CCNCC4)cn3)nc2n(C2CCCC2)c1=O` [Palbociclib, reference compound] was run?
Its value is 0.58 and 0.54 and 0.51.

What about the “MCF-7 growth, palbociclib combined with LATS1/2 depletion” value ([3]; LATS1/2 deficient MCF-7, Palbociclib 0.1 or 0.3 µM for 7 days, Supplementary Fig. 8i) of the same compound?
The value was “dramatically reduced MCF-7 growth”.

`CC/C(=C(\c1ccccc1)c1ccc(OCCN(C)C)cc1)c1ccccc1` [Tamoxifen] was tested. Which “Rel. growth (BTO-02, %)” value [8] did it give?
Its value is 55.442% and 49.15% and 52.381%.
